Activity calls are given as the source filed them. The rule behind the calls is not given here.
How the values were obtained:
Candida albicans [1] = assay: microbe, parasite or virus in culture; format: functional; conditions: 0304103, time 48 hrs
Description: Antifungal activity against azole-resistant Candida albicans 0304103 assessed as fungal growth inhibition incubated for 48 hrs by CLSI based checkerboard microdilution assay

Candida albicans [2] = format: functional, 0304103; conditions: time 48 hrs
Description: Synergistic antifungal activity against azole-resistant Candida albicans 0304103 assessed as fractional inhibitory concentration index in presence of fluconazole incubated for 48 hrs by CLSI based checkerboard microdilution assay

HEL = assay: Cytotoxicity against human HEL cells assessed as inhibition of cell growth; format: functional, cell-based
Candida albicans [3] = format: functional, 0304103; conditions: time 48 hrs; remark: listed apart in the source
Description: Synergistic antifungal activity against azole-resistant Candida albicans 0304103 assessed as fractional inhibitory concentration in presence of fluconazole incubated for 48 hrs by CLSI based checkerboard microdilution assay

A549 = assay: Cytotoxicity against human A549 cells assessed as inhibition of cell growth; format: functional, cell-based
Candida albicans [4] = format: functional, 0304103; conditions: time 48 hrs; remark: listed apart in the source
Description: Synergistic antifungal activity against azole-resistant Candida albicans 0304103 assessed as fractional inhibitory concentration incubated for 48 hrs by CLSI based checkerboard microdilution assay

Candida albicans [5] = assay: Inhibition of biofilm formation in azole-resistant Candida albicans 0304103 assessed as downregulation of EAP1 expression at 64 ug/ml by RT-PCR analysis; format: functional, organism-based; conditions: dose 64.0 µg/ml
Candida albicans [6] = assay: Inhibition of biofilm formation in azole-resistant Candida albicans 0304103 at 64 ug/ml incubated for 24 hrs by XTT reduction assay; format: functional, organism-based; conditions: dose 64.0 µg/ml
Candida albicans [7] = assay: Inhibition of biofilm formation in azole-resistant Candida albicans 0304103 assessed as downregulation of BCR1 expression at 64 ug/ml by RT-PCR analysis; format: functional, organism-based; conditions: dose 64.0 µg/ml
Candida albicans [8] = assay: Inhibition of biofilm formation in azole-resistant Candida albicans 0304103 assessed as downregulation of […] expression at 64 ug/ml by RT-PCR analysis; format: functional, organism-based; conditions: dose 64.0 µg/ml
Candida albicans [9] = assay: Inhibition of biofilm formation in azole-resistant Candida albicans 0304103 assessed as downregulation of HWP1 expression at 64 ug/ml by RT-PCR analysis; format: functional, organism-based; conditions: dose 64.0 µg/ml
[10] = Cytotoxicity against human HaCaT cells assessed as inhibition of cell growth; format: toxicity, cell-based
Candida albicans [11] = assay: Downregulation of CDR1 expression in azole-resistant Candida albicans 0304103 at 8 ug/ml in presence of fluconazole by RT-PCR analysis; format: functional; conditions: dose 8.0 µg/ml
Histone deacetylase = format: protein assay, Homo sapiens
[12] = Inhibition of fungal HSP90 incubated for 6 hrs in presence of FITC-Geldanamycin by fluorescence polarization analysis; set-up: species or system Fungi
Candida albicans [13] = assay: Antifungal activity against azole-resistant Candida albicans 0304103 infected in ICR mouse assessed as reduction in fungal burden in kidney by measuring neat and dense arrangement of cells at 10 mg/kg, ip administered once daily for 5 days in presence of fluconazole by Periodic acid-Schiff staining based analysis; format: functional, organism-based; conditions: time 5.0 day
Candida albicans [14] = assay: Downregulation of ERG11 expression in azole-resistant Candida albicans 0304103 at 8 ug/ml in presence of fluconazole by RT-PCR analysis; format: functional; conditions: dose 8.0 µg/ml
Heat shock protein HSP90 = Heat shock protein HSP90 (Homo sapiens, UniProt P07900+P08238); assay: Inhibition of human HSP90; format: protein assay
Candida albicans [15] = assay: (§1) Antifungal activity against azole-resistant Candida albicans 0304103 infected in ICR mouse assessed as reduction in fungal burden in kidney by measuring smooth kidney tissue at 10 mg/kg, ip administered once daily for 5 days in presence of fluconazole by Periodic acid-Schiff staining based analysis; format: functional, organism-based; conditions: time 5.0 day
[16] = Inhibition of fungal HDAC using Boc-Lys (acetyl)-AMC as substrate preincubated for 12 hrs followed by substrate addition and measured after 6 hrs by fluorescence-based analysis; set-up: species or system Fungi
Candida albicans [17] = assay: Antifungal activity against azole-resistant Candida albicans 0304103 infected in ICR mouse assessed as reduction in fungal burden in kidney at 10 mg/kg, ip administered once daily for 5 days in presence of fluconazole; format: functional, organism-based; conditions: time 5.0 day
Candida albicans [18] = assay: as §1, with “assessed as assessed as reduction in” for “assessed as reduction in”, “by measuring reduction in fungal invasion at 10” for “by measuring smooth kidney tissue at 10”; format: functional, organism-based; conditions: time 5.0 day
[19] = Toxicity in ICR mouse infected with azole-resistant Candida albicans 0304103 assessed as reduction in survival time at 10 mg/kg, ip administered once daily for 5 days; format: organism-based; conditions: in vivo, 120 h, time 5 day
Candida albicans [20] = assay: Upregulation of ERG11 expression in azole-resistant Candida albicans 0304103 at 8 ug/ml by RT-PCR analysis; format: functional; conditions: dose 8.0 µg/ml

SMILES	MIC80 (Candida albicans [1]) [µg/mL]	fractional inhibitory concentration index (FICI) (Candida albicans [2])	IC50 (HEL) [µM]	FIC (Candida albicans [3]) [µg/mL]	IC50 (A549) [µM]	FIC (Candida albicans [4]) [µg/mL]	further results
CC(C)c1cc(-c2n[nH]c(=O)n2-c2cccc(C(=O)NCCCCC(=O)NO)c2)c(O)cc1O	> 64	1.25	4.6	64	4.6	16	–
CC(C)c1cc(-c2n[nH]c(=O)n2-c2ccc(NC(=O)CCCCCC(=O)NO)cc2)c(O)cc1O	> 64	0.25	0.024	8	0.024	8	–
CC(C)c1cc(-c2n[nH]c(=O)n2-c2cccc(C(=O)NCCCCCCC(=O)NO)c2)c(O)cc1O	> 64	0.141	4.6	1	4.6	8	inhibition (Candida albicans [5]): Active; inhibition (Candida albicans [6]): Active; inhibition (Candida albicans [7]): Active; inhibition (Candida albicans [8]): Active; inhibition (Candida albicans [9]): Active; IC50 [10]: > 6.13 µM
CC(C)c1cc(-c2n[nH]c(=O)n2-c2cccc(NC(=O)CCCCCCC(=O)NO)c2)c(O)cc1O	> 64	0.156	1.6	2	1.6	8	–
CC(C)c1cc(-c2n[nH]c(=O)n2-c2ccc(C(=O)NCCCCC(=O)NO)cc2)c(O)cc1O	> 64	0.188	4.6	8	4.6	4	–
CC(C)c1cc(-c2n[nH]c(=O)n2-c2ccc(C(=O)NCCCCCCCC(=O)NO)cc2)c(O)cc1O	> 64	0.266	4.6	1	4.6	16	Activity (Candida albicans [11]): Active; IC50 (Histone deacetylase): 3 µM; inhibition (Candida albicans [5]): Active; IC50 [12]: 0.83 µM; Activity (Candida albicans [13]): Active; inhibition (Candida albicans [6]): Active; inhibition (Candida albicans [7]): Active; inhibition (Candida albicans [8]): Active; Activity (Candida albicans [14]): Active; IC50 (Heat shock protein HSP90): 19.52 µM; inhibition (Candida albicans [9]): Active; Activity (Candida albicans [15]): Active; IC50 [16]: 0.91 µM; Activity (Candida albicans [17]): Active; IC50 [10]: > 6.13 µM; Activity (Candida albicans [18]): Active
CC(C)c1cc(-c2n[nH]c(=O)n2-c2ccc(NC(=O)CCCCC(=O)NO)cc2)c(O)cc1O	> 64	0.5	0.024	16	0.024	16	–
CC(C)c1cc(-c2n[nH]c(=O)n2-c2cccc(NC(=O)CCCCCC(=O)NO)c2)c(O)cc1O	> 64	1.5	1.6	32	1.6	64	–
CC(C)c1cc(-c2n[nH]c(=O)n2-c2cccc(C(=O)NCCCC(=O)NO)c2)c(O)cc1O	> 64	2	4.6	64	4.6	64	–
CC(C)c1cc(-c2n[nH]c(=O)n2-c2ccc3c(ccn3C)c2)c(O)cc1O [GANETESPIB]	> 64	–	–	1	–	0.5	IC50 [12]: 0.66 µM; Activity [19]: Toxic; IC50 [10]: < 0.015 µM
CC(C)c1cc(-c2n[nH]c(=O)n2-c2ccc(C(=O)NCCCC(=O)NO)cc2)c(O)cc1O	> 64	0.266	4.6	1	4.6	16	–
CC(C)c1cc(-c2n[nH]c(=O)n2-c2ccc(C(=O)NCCCCCC(=O)NO)cc2)c(O)cc1O	> 64	2	4.6	>64	4.6	>64	–
CC(C)c1cc(-c2n[nH]c(=O)n2-c2ccc(C(=O)NCCCCCCC(=O)NO)cc2)c(O)cc1O	> 64	0.266	4.6	1	4.6	16	–
CC(C)c1cc(-c2n[nH]c(=O)n2-c2ccc(NC(=O)CCCCCCC(=O)NO)cc2)c(O)cc1O	> 64	0.188	0.024	4	0.024	8	–
OC(Cn1cncn1)(Cn1cncn1)c1ccc(F)cc1F	–	–	–	–	–	–	Activity (Candida albicans [20]): Active
CC(C)c1cc(-c2n[nH]c(=O)n2-c2cccc(NC(=O)CCCCC(=O)NO)c2)c(O)cc1O	> 64	1.5	1.6	32	1.6	64	–
O=C(CCCCCCC(=O)Nc1ccccc1)NO [VORINOSTAT]	–	–	–	–	–	–	IC50 [16]: 3.6 µM; Activity [19]: Toxic; IC50 [10]: 1.85 µM
CC(C)c1cc(-c2n[nH]c(=O)n2-c2cccc(C(=O)NCCCCCC(=O)NO)c2)c(O)cc1O	> 64	1.25	4.6	64	4.6	16	–
CNC(=O)CCCCCCCNC(=O)c1cccc(-n2c(-c3cc(C(C)C)c(O)cc3O)n[nH]c2=O)c1	> 64	0.156	4.6	2	4.6	8	IC50 [10]: > 6.13 µM
CC(C)c1cc(-c2n[nH]c(=O)n2-c2ccc(NC(=O)CCCC(=O)NO)cc2)c(O)cc1O	> 64	0.078	0.024	1	0.024	4	–
